Assays:
Assay type in all cases: in vivo
[1] = tested on: Mediterranean Fruitfly (Ceratitis capitata); experiment: B.6 Mediterranean Fruitfly (Ceratitis capitata), microtiter plate insect diet; settings: 120 h, 800 ppm, sprayed onto insect diet, 5 days, in comparison with untreated controls, read-out: mortality (egg and larval)
Procedure: B.6 Mediterranean Fruitfly (Ceratitis capitata)
For evaluating control of Mediterranean fruitfly (Ceratitis capitata) the test unit consisted of microtiter plates containing an insect diet and 50-80 C. capitata eggs.
(§1) The compounds were formulated using a solution containing 75% v/v water and 25% v/v DMSO. Different concentrations of formulated compounds were sprayed onto the insect diet at 5 μl, using a custom built micro atomizer, at two replications.
(§2) After application, microtiter plates were incubated at about 28±1° C. and about 80±5% relative humidity for 5 days. Egg and larval mortality was then visually assessed.

[2] = tested on: Orchid thrips (dichromothrips corbetti); experiment: B.12 Orchid thrips (dichromothrips corbetti), floral-immersion technique; settings: adult thrips on dipped orchid petals, 72 hours after treatment, in comparison with untreated controls
Procedure: B.12 Orchid thrips (dichromothrips corbetti)
Dichromothrips corbetti adults used for bioassay were obtained from a colony maintained continuously under laboratory conditions. For testing purposes, the test compound is diluted in a 1:1 mixture of acetone:water (vol:vol), plus Kinetic HV at a rate of 0.01% v/v.
Thrips potency of each compound was evaluated by using a floral-immersion technique. All petals of individual, intact orchid flowers were dipped into treatment solution and allowed to dry in Petri dishes. Treated petals were placed into individual resealable plastic along with about 20 adult thrips. All test arenas were held under continuous light and a temperature of about 28° C. for duration of the assay. After 3 days, the numbers of live thrips were counted on each petal. The percent mortality was recorded 72 hours after treatment.

[3] = tested on: Boll Weevil (Anthonomus grandis); experiment: B.3 Boll Weevil (Anthonomus grandis), microtiter plate insect diet; settings: 120 h, 800 ppm, sprayed onto insect diet, 5 days, in comparison with untreated controls, read-out: mortality (egg and larval)
Procedure: B.3 Boll Weevil (Anthonomus grandis)
For evaluating control of boll weevil (Anthonomus grandis) the test unit consisted of 96-well-microtiter plates containing an insect diet and 5-10 A. grandis eggs.
as §1
After application, microtiter plates were incubated at about 25±1° C. and about 75±5% relative humidity for 5 days. Egg and larval mortality was then visually assessed.

[4] = tested on: Diamond Back Moth (Plutella xylostella); experiment: B.1 Diamond Back Moth (Plutella xylostella), cabbage leaf dip; settings: foliar, 500 ppm, 3rd instar larvae on dipped cabbage leaves, 72 hours after treatment, in comparison with untreated controls, read-out: mortality
Procedure: B.1 Diamond Back Moth (Plutella xylostella)
The active compound was dissolved at the desired concentration in a mixture of 1:1 (vol:vol) distilled water:aceteone. Surfactant (Kinetic HV) was added at a rate of 0.01% (vol/vol). The test solution was prepared at the day of use.
Leaves of cabbage were dipped in test solution and air-dried. Treated leaves were placed in petri dishes lined with moist filter paper and inoculated with ten 3rd instar larvae. Mortality was recorded 72 hours after treatment. Feeding damages were also recorded using a scale of 0-100%.

[5] = tested on: Tobacco Budworm (Heliothis virescens); experiment: B.7 Tobacco Budworm (Heliothis virescens) I, microtiter plate insect diet; settings: 120 h, 800 ppm, sprayed onto insect diet, 5 days, in comparison with untreated controls, read-out: mortality (egg and larval)
Procedure: B.7 Tobacco Budworm (Heliothis virescens) I
as §1, with “For evaluating control of tobacco budworm (Heliothis virescens) the test unit consisted of 96-well-microtiter plates containing an insect diet and 15-25 H. virescens eggs. The” for “The”, “at 10” for “at 5”
as §2

[6] = tested on: Yellow Fever Mosquito (Aedes aegypti); experiment: whole plant or invertebrate; settings: 48 h, freshly hatched larvae in tap water, 2 days, in comparison with untreated controls, read-out: mortality (larval)
Procedure: B.11 Yellow Fever Mosquito (Aedes aegypti)
For evaluating control of yellow fever mosquito (Aedes aegypti) the test unit consisted of 96-well-microtiter plates containing 200 μl of tap water per well and 5-15 freshly hatched A. aegypti larvae.
The active compounds were formulated using a solution containing 75% (v/v) water and 25% (v/v) DMSO. Different concentrations of formulated compounds or mixtures were sprayed onto the insect diet at 2.5 μl, using a custom built micro atomizer, at two replications.

FC(F)(F)Oc1ccc(-c2onc3c2CCc2cc(/C=N/NC(=S)Nc4c(Cl)cc(Cl)cc4Cl)ccc2-3)cc1 [C-9, 1-(2,4,6-trichlorophenyl)-3-[(E)-[3-[4-(trifluoromethoxy)phenyl]-4,5-dihydrobenzo[g][2,1]benzoxazol-7-yl]methyleneamino]thiourea]
≥ 75%: mortality at 800 ppm [1] | mortality at 500 ppm [2]

Cc1ccc(Cl)cc1NC(=S)N/N=C/c1ccc2c(ccc3c2ncn3-c2ccc(OC(F)(F)F)cc2)c1 [C-21, 1-(5-chloro-2-methyl-phenyl)-3-[(E)-[3-[4-(trifluoromethoxy)phenyl]benzo[e]benzimidazol-7-yl]methyleneamino] thiourea]
≥ 75%: mortality at 800 ppm [3] | mortality at 500 ppm [4] | mortality at 800 ppm [5] | mortality at 800 ppm [1] | mortality at 500 ppm [2]

COc1ccccc1NC(=S)N/N=C/c1ccc2c(ccc3c2ncn3-c2ccc(OC(F)(F)F)cc2)c1 [C-26, 3-(2-methoxyphenyl)-1-[[3-[4-(trifluoromethoxy)phenyl]-9aH-benzo[e]benzimidazol-7-ylidene]methylimino] isothiourea]
≥ 75%: mortality at 800 ppm [3] | mortality at 500 ppm [4] | mortality at 800 ppm [5] | mortality at 800 ppm [1]

FC(F)(F)Oc1ccc(-n2cnc3c4ccc(/C=N/NC(=S)Nc5cccc6ccccc56)cc4ccc32)cc1 [C-29, 1-(2H-naphthalen-1-ylidene)-3-[[3-[4-(trifluoromethoxy)phenyl]-9aH-benzo[e]benzimidazol-7-ylidene]methylimino] thiourea]
≥ 75%: mortality at 800 ppm [3] | mortality at 500 ppm [4] | mortality at 800 ppm [5] | mortality at 800 ppm [1]

FC(F)(F)Oc1ccc(-n2cnc3c4ccc(/C=N/NC(=S)Nc5ccccc5Cl)cc4ccc32)cc1 [C-30, 3-(2-chlorophenyl)-1-[[3-[4-(trifluoromethoxy)phenyl]-8H-benzo[e]benzimidazol-7-ylidene]methylimino] isothiourea]
≥ 75%: mortality at 500 ppm [4] | mortality at 500 ppm [2]

Cc1cc(Cl)ccc1NC(=S)N/N=C/c1ccc2c(ccc3c2ncn3-c2ccc(OC(F)(F)F)cc2)c1 [C-38, 1-(4-chloro-2-methyl-phenyl)-3-[(E)-[3-[4-(trifluoromethoxy)phenyl]benzo[e]benzimidazol-7-yl]methyleneamino] thiourea]
≥ 75%: mortality at 800 ppm [3] | mortality at 500 ppm [4] | mortality at 800 ppm [5] | mortality at 800 ppm [1] | mortality at 500 ppm [2]

CC(C)c1ccccc1NC(=S)N/N=C/c1ccc2c(ccc3c2ncn3-c2ccc(OC(F)(F)F)cc2)c1 [C-45, 1-(2-isopropylphenyl)-3-[[3-[4-(trifluoromethoxy)phenyl]-3aH-benzo[e]benzimidazol-7-ylidene]methylimino] thiourea]
≥ 75%: mortality at 800 ppm [3] | mortality at 500 ppm [4] | mortality at 800 ppm [5] | mortality at 800 ppm [1] | mortality at 500 ppm [2]

Cc1cccc(C)c1NC(=S)N/N=C/c1ccc2c(ccc3c2cnn3-c2ccc(OC(F)(F)F)cc2)c1 [C-46, (E)-N-(2,6-dimethylphenyl)-2-((3-(4-(trifluoromethoxy)phenyl)-3H-benzo[e]indazol-7-yl)methylene)hydrazinecarbothioamide]
≥ 75%: mortality at 800 ppm [3] | mortality at 500 ppm [4] | mortality at 800 ppm [5] | mortality at 800 ppm [1]

CCc1ccccc1NC(=S)N/N=C/c1ccc2c(ccc3c2cnn3-c2ccc(OC(F)(F)F)cc2)c1 [C-50, 1-(2-ethylphenyl)-3-[[3-[4-(trifluoromethoxy)phenyl]-5H-benzo[e]indazol-7-ylidene]methylimino]thiourea]
≥ 75%: mortality at 800 ppm [3] | mortality at 500 ppm [4] | mortality at 800 ppm [5] | mortality at 800 ppm [1]

FC(F)(F)Oc1ccc(-n2cnc3c4ccc(/C=N/NC(=S)Nc5c(Br)cccc5Br)cc4ccc32)cc1 [C-66, 1-(2,6-dibromophenyl)-3-[(E)-[3-[4-(trifluoromethoxy)phenyl]benzo[e]benzimidazol-7-yl]methyleneamino] thiourea]
≥ 75%: mortality at 800 ppm [3] | mortality at 500 ppm [4] | mortality at 800 ppm [5] | mortality at 800 ppm [1] | mortality at 500 ppm [2]

FC(F)(F)Oc1ccc(-n2cnc3c4ccc(/C=N/NC(=S)Nc5ccccc5Br)cc4ccc32)cc1 [C-67, 1-(2-bromophenyl)-3-[[3-[4-(trifluoromethoxy)phenyl]-5H-benzo[e]benzimidazol-7-ylidene]methylimino] thiourea]
≥ 75%: mortality at 800 ppm [3] | mortality at 500 ppm [4] | mortality at 800 ppm [5] | mortality at 800 ppm [1]

CCc1cccc(C)c1NC(=S)N/N=C(\C)c1ccc2c(ccc3c2ncn3-c2ccc(OC(F)(F)F)cc2)c1 [C-82, 1-(2-ethyl-6-methyl-phenyl)-3-[(E)-1-[3-[4-(trifluoromethoxy)phenyl]benzo[e]benzimidazol-7-yl]ethylideneamino]thiourea]
≥ 75%: mortality at 500 ppm [4] | mortality at 500 ppm [2]

Cc1cccc(C)c1NC(=S)N/N=C/c1ccc2c(ccc3c(-c4ccc(OC(F)(F)F)cc4)snc32)c1 [C-88, 1-(2,6-dimethylphenyl)-3-[(E)-[3-[4-(trifluoromethoxy)phenyl]benzo[g][2,1]benzothiazol-7-yl]methyleneamino] thiourea]
≥ 75%: mortality at 800 ppm [5] | mortality at 800 ppm [6]

Cc1cccc(Cl)c1NC(=S)N/N=C/c1ccc2c(ccc3c(-c4ccc(OC(F)(F)F)cc4)n(C)nc32)c1 [C-91, 1-(2-chloro-6-methyl-phenyl)-3-[(E)-[2-methyl-3-[4-(trifluoromethoxy)phenyl]benzo[g]indazol-7-yl]methyleneamino] thiourea]
≥ 75%: mortality at 800 ppm [3] | mortality at 500 ppm [4] | mortality at 800 ppm [5] | mortality at 800 ppm [1]

Cn1nc2c(ccc3cc(/C=N/NC(=S)Nc4c(Br)cccc4Br)ccc32)c1-c1ccc(OC(F)(F)F)cc1 [C-98, 1-(2,6-dibromophenyl)-3-[(E)-[2-methyl-3-[4-(trifluoromethoxy)phenyl]benzo[g]indazol-7-yl]methyleneamino] thiourea]
≥ 75%: mortality at 800 ppm [3] | mortality at 500 ppm [4] | mortality at 800 ppm [5] | mortality at 800 ppm [1]

Cn1nc2c(ccc3cc(/C=N/NC(=S)Nc4c(Cl)cccc4Cl)ccc32)c1-c1ccc(OC(F)(F)F)cc1 [C-99, 1-(2,6-dichlorophenyl)-3-[(E)-[2-methyl-3-[4-(trifluoromethoxy)phenyl]benzo[g]indazol-7-yl]methyleneamino]thiourea]
≥ 75%: mortality at 800 ppm [3] | mortality at 800 ppm [5] | mortality at 800 ppm [1] | mortality at 500 ppm [2]

Cc1cccnc1NC(=S)N/N=C/c1ccc2c(ccc3c(-c4ccc(OC(F)(F)F)cc4)n(C)nc32)c1 [C-101, 1-(3-methyl-2-pyridyl)-3-[(E)-[2-methyl-3-[4-(trifluoromethoxy)phenyl]benzo[g]indazol-7-yl]methyleneamino]thiourea]
≥ 75%: mortality at 800 ppm [3] | mortality at 500 ppm [4] | mortality at 800 ppm [5] | mortality at 800 ppm [1] | mortality at 500 ppm [2]

Cc1cccc(C)c1NC(=S)N/N=C/c1ccc2c(ccc3c2ncn3-c2ncc(C(F)(F)F)cc2Cl)c1 [C-112, 1-[[3-[3-chloro-5-(trifluoromethyl)-2-pyridyl]-3aH-benzo[e]benzimidazol-7-ylidene]methylimino]-3-(2,6-dimethylphenyl)thiourea]
≥ 75%: mortality at 800 ppm [3] | mortality at 800 ppm [5] | mortality at 800 ppm [6] | mortality at 800 ppm [1]

From patent publication US9497970B2, “Pesticide compounds” (priority 2013, dated 2016)
